Data set [1] can be described thus: Solubility at pH 7.4. In kind it is physicochemical. To be noted: buffer.
The nature of data set [2]: Solubility at pH 9.0. In kind it is physicochemical. The note with it: buffer.
Data set [3] is described as follows: Solubility at pH 0.1. To be noted: buffer. In kind it is physicochemical.
The nature of data set [4]: AUC (0 to 6 hrs) in rat at 10 mg/kg, po. In kind it is ADME, organism-based. Set-up: time < 6 hr, dose 10 mg/kg, route oral. To be noted: plasma.
Data set [5] is described as follows: Tmax in rat at 10 mg/kg, po. In kind it is ADME, organism-based. On the set-up: dose 10 mg/kg, route oral. The note with it: in vivo.
Data set [6] is described as follows: Clearance in rat at 0.5 mg/kg, iv. In kind it is ADME, organism-based. Set-up: dose 0.5 mg/kg, route intravenous. To be noted: in vivo.
A short description of data set [7]: Oral bioavailability in rat at 10 mg/kg. In kind it is ADME, organism-based. To be noted: in vivo.
Data set [8] in a line: Half life in rat at 0.5 mg/kg, iv. In kind it is ADME, organism-based. On the set-up: dose 0.5 mg/kg, route intravenous. The note with it: in vivo.
A short description of data set [9]: Volume of distribution at steady state in rat at 0.5 mg/kg, iv. In kind it is ADME, organism-based. On the set-up: dose 0.5 mg/kg, route intravenous. The note with it: in vivo, read-out: Vdss.
The nature of data set [10]: Cmax in rat at 10 mg/kg, po. In kind it is ADME, organism-based. On the set-up: dose 10 mg/kg, route oral. To be noted: in vivo.
Data set [11] can be described thus: Half life in rat at 1 mg/kg, iv. On the set-up: dose 1 mg/kg, route intravenous. To be noted: in vivo. In kind it is ADME, organism-based.
Data set [12] can be described thus: Volume of distribution at steady state in rat at 1 mg/kg, iv. The note with it: in vivo, read-out: Vdss. In kind it is ADME, organism-based. On the set-up: dose 1 mg/kg, route intravenous.
Data set [13] is described as follows: Clearance in rat at 1 mg/kg, iv. In kind it is ADME, organism-based. On the set-up: dose 1 mg/kg, route intravenous. The note with it: in vivo.

SMILES strings stand for the structures. In brackets after ≈: the same amount, converted by molar mass.

What is called solubility is the dissolved amount per volume that the medium holds. Higher therefore signals a readily soluble substance. Regarding `Nc1c(C(=O)c2ccc(F)cc2F)cc[n+]([O-])c1-c1c(F)cccc1F`, the results for the solubility in [1] and in data set [2] were 4 µg/mL (≈ 11 µM) and 2 µg/mL (≈ 5.52 µM), respectively.
Take `COCCOc1ccc(-c2c(N)c(C(=O)c3ccc(F)cc3F)cc[n+]2[O-])c(C)c1`: the values for the solubility in data set [3], in data set [1] and in data set [2] were 24 µg/mL (≈ 57.9 µM), 67 µg/mL (≈ 162 µM) and 89 µg/mL (≈ 215 µM), respectively.
As a reminder, the AUC(0-t) is exposure summed from dosing to a finite time, without extrapolation to infinity. Low readings indicate less exposure, high ones more exposure. The Tmax is the time at which the peak concentration occurs. Broadly, the clearance is a measure of how efficiently the substance is removed, as volume per time. Lower therefore signals a low capacity for elimination. What is called bioavailability is dose-corrected exposure relative to a reference, in per cent. For orientation: half-life means the time in which the quantity being followed falls by half. Low readings indicate fast loss, high ones slow loss. A word on the Cmax: it is the maximum level reached in the sampled fluid or tissue. As for `Cc1ccccc1-c1c(N)c(C(=O)c2ccc(F)cc2F)cc[n+]1[O-]`, the values for the solubility in data set [3], in [1] and in data set [2] were 110 µg/mL (≈ 323 µM), 63 µg/mL (≈ 185 µM) and 74 µg/mL (≈ 217 µM), respectively. In data set [4], this molecule came in with an AUC(0-t) at 6 h of 22.2 µM·h. In data set [5], the Tmax came out at 0.75 h. This molecule yielded a clearance in data set [6] of 16.7 mL/min/kg. Besides, the bioavailability in [7] came to 75%. For the same molecule, in data set [8], the half-life was 1.6 h. Moreover, in data set [9], the Vd came out at 2.3 L/kg. This molecule registered a Cmax in data set [10] of 4.7 µM.
For the molecule `Cc1cc(O)ccc1-c1c(N)c(C(=O)c2ccc(F)cc2F)cc[n+]1[O-]`, the solubility in data set [3] came to 44 µg/mL (≈ 123 µM); in data set [1] it was 37 µg/mL (≈ 104 µM).
As for `Cc1cccc(C)c1-c1c(N)c(C(=O)c2ccc(F)cc2F)cc[n+]1[O-]`, the results for the solubility in data set [3], in data set [1] and in [2] were 40 µg/mL (≈ 113 µM), 69 µg/mL (≈ 195 µM) and 70 µg/mL (≈ 198 µM), respectively.
Turning to `Nc1c(C(=O)c2ccc(F)cc2F)cc[n+]([O-])c1-c1ccccc1Cl`, the figures for the solubility in data set [3], in data set [1] and in data set [2] were 66 µg/mL (≈ 183 µM), 59 µg/mL (≈ 164 µM) and 39 µg/mL (≈ 108 µM), respectively. The AUC(0-t) at 6 h in [4] came to 54.4 µM·h. The Tmax in data set [5] is 3.5 h. Moreover, the bioavailability in data set [7] was 23%. Besides, the half-life in data set [11] was 14.8 h. Further, the Vd in data set [12] was found to be 1.8 L/kg. Further, the Cmax in data set [10] stood at 11.9 µM. Also, the clearance in data set [13] amounted to 1.7 mL/min/kg.
Turning to `Cc1cc(OCCN2CCOCC2)ccc1-c1c(N)c(C(=O)c2ccc(F)cc2F)cc[n+]1[O-]`, the solubility in data set [3] is more than 1000 µg/mL; in data set [1], 51 µg/mL (≈ 109 µM).
Regarding `Cc1cc(C(=O)O)ccc1-c1c(N)c(C(=O)c2ccc(F)cc2F)cc[n+]1[O-]`, the solubility in data set [3] was 41 µg/mL (≈ 107 µM); in data set [1], more than 1000 µg/mL; in [2] it was more than 1000 µg/mL.
Take `COCCNC(=O)c1ccc(-c2c(N)c(C(=O)c3ccc(F)cc3F)cc[n+]2[O-])c(C)c1`: the solubility came to 54 µg/mL (≈ 122 µM) in data set [3], 46 µg/mL (≈ 104 µM) in data set [1] and 49 µg/mL (≈ 111 µM) in data set [2].

For the origin of these results see ChEMBL document CHEMBL1152438, “Design, synthesis, and structure-activity relationships of aminopyridine N-oxides, a novel scaffold for the potent and selective inhibition of p38 mitogen activated protein kinase” (J Med Chem, 2009).
